# Results reported in patent publication US8809342B2, “Glucagon receptor modulators” (Pfizer Inc., priority 2010, dated 2014).
# Target: T1, human glucagon receptor (Homo sapiens, UniProt P47871)
# T1 construct: expressed in transfected cells; host or cells: CHO-K1 cells, stably transfected
# Assay: Glucagon cAMP assay (Cisbio cAMP detection)
# Assay type: cell-based
# Procedure: The Cisbio cAMP detection assay is used to determine the ability of punitive glucagon antagonist to block glucagon induced cAMP production. Potential glucagon antagonists are re-suspended and diluted in 100% DMSO. Prior to use in the Glucagon cAMP assay 100×DMSO compound stocks are diluted 20× with DMEM-F12 media (Invitrogen) containing either 0.1% or 4% BSA. 2 uls of 5× compound stocks are spotted into the appropriate wells of low binding white solid bottom 384 well plates (Corning). 2 uls of 5% DMSO or known glucagon antagonist are added to each plate to define the assay window. CHOK1 cells stably transfected with the human glucagon receptor are removed from culture flasks with cell dissociation buffer. Cell pellets are re-suspended, at a concentration of 8.3e^5 cells/ml in DMEM-F12 with or without 4% BSA and 200 uM IBMX. 6 uls of cell suspensions are added to the assay plates. Plates are incubated for 20 min at room temperature prior to the addition of a 100 pM challenge dose of glucagon. On a separate plate glucagon dose response curves are run to determine the EC50 of glucagon. After a 30 min room temperature incubation the reaction is terminated by the addition of lysis buffer containing the cAMP detection reagents. Plates are incubated for an additional 60 min at room temperature prior to being read on the Perkin Elmer fluorescent plate reader. Raw is converted to nM of cAMP produced based on a cAMP standard curve. Converted data is then analyzed using the Pfizer data analysis program. IC50 values are determined from the generated sigmoidal dose response curves. Kb values are the calculated using a modified Cheng-Prusoff equation.
# T1 sequence (P47871 26-477): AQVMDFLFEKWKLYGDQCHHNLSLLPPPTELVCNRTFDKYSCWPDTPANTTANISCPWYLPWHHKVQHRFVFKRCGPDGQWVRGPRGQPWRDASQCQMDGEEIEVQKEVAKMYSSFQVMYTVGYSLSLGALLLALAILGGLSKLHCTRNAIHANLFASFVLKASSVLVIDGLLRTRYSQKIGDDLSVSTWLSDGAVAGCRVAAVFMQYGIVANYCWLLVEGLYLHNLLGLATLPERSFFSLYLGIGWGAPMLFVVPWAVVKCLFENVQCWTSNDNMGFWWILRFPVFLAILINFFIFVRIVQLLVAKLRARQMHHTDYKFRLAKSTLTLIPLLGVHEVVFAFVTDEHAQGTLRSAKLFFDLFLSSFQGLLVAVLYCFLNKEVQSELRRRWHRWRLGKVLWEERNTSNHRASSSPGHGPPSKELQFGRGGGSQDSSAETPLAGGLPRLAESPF
row,SMILES,Kb
1,"CC(C)CC(Nc1ccc(C(=O)NCCC(=O)O)cn1)c1ccc(-c2ccccc2Cl)cc1 (racemic) [Example 1.44, (+/−)-3-(6-(1-(2′-chlorobiphenyl-4-yl)-3-methylbutylamino)nicotinamido)propanoic acid]",580 nM
2,"CC(C)CC(Nc1ccc(C(=O)NCCC(=O)O)cn1)c1ccc(-c2ccc(C#N)cc2)cc1 (racemic) [Example 1.45, (+/−)-3-(6-(1-(4′-cyanobiphenyl-4-yl)-3-methylbutylamino)nicotinamido)propanoic acid]",620 nM
3,"CCOc1ccc(-c2ccc(C(CC(C)C)Nc3ccc(C(=O)NCCC(=O)O)cn3)cc2)cc1 (racemic) [Example 1.46, (+/−)-3-(6-(1-(4′-ethoxybiphenyl-4-yl)-3-methylbutylamino)nicotinamido)propanoic acid]",92 nM
4,"COc1cccc(-c2ccc(C(CC(C)C)Nc3ccc(C(=O)NCCC(=O)O)cn3)cc2)c1 (racemic) [Example 1.47, (+/−)-3-(6-(1-(3′-methoxybiphenyl-4-yl)-3-methylbutylamino)nicotinamido)propanoic acid]",180 nM
5,"Cc1cccc(C)c1-c1ccc(C(CC(C)C)Nc2ccc(C(=O)NCCC(=O)O)cn2)cc1 (racemic) [Example 1.48, (+/−)-3-(6-(1-(2′,6′-dimethylbiphenyl-4-yl)-3-methylbutylamino)nicotinamido)propanoic acid]",1200 nM
6,"Cc1ccc(C)c(-c2ccc(C(CC(C)C)Nc3ccc(C(=O)NCCC(=O)O)cn3)cc2)c1 (racemic) [Example 1.49, (+/−)-3-(6-(1-(2′,5′-dimethylbiphenyl-4-yl)-3-methylbutylamino)nicotinamido)propanoic acid]",750 nM
7,"Cc1ccc(-c2ccc(C(CC(C)C)Nc3ccc(C(=O)NCCC(=O)O)cn3)cc2)cc1 (racemic) [Example 1.50, (+/−)-3-(6-(3-methyl-1-(4′-methylbiphenyl-4-yl)butylamino)nicotinamido)propanoic acid]",70 nM
8,"CC(C)CC(Nc1ccc(C(=O)NCCC(=O)O)cn1)c1ccc(-c2ccc(F)cc2)cc1 (racemic) [Example 1.51, (+/−)-3-(6-(1-(4′-fluorobiphenyl-4-yl)-3-methylbutylamino)nicotinamido)propanoic acid]",160 nM
9,"COc1ccc(-c2ccc(C(CC(C)C)Nc3ccc(C(=O)NCCC(=O)O)cn3)cc2)cc1 (racemic) [Example 1.52, (+/−)-3-(6-(1-(4′-methoxybiphenyl-4-yl)-3-methylbutylamino)nicotinamido)propanoic acid]",120 nM
10,"CC(C)CC(Nc1ccc(C(=O)NCCC(=O)O)cn1)c1ccc(-c2ccc(Cl)cc2)cc1 (racemic) [Example 1.53, (+/−)-3-(6-(1-(4′-chlorobiphenyl-4-yl)-3-methylbutylamino)nicotinamido)propanoic acid]",46 nM
11,"CCc1ccc(-c2ccc(C(CC(C)C)Nc3ccc(C(=O)NCCC(=O)O)cn3)cc2)cc1 (racemic) [Example 1.54, (+/−)-3-(6-(1-(4′-ethylbiphenyl-4-yl)-3-methylbutylamino)nicotinamido)propanoic acid]",230 nM
12,"CC(C)CC(Nc1ccc(C(=O)NCCC(=O)O)cn1)c1ccc(-c2ccccn2)cc1 (racemic) [Example 1.55, (+/−)-3-(6-(3-methyl-1-(4-(68yridine-2-yl)phenyl)butylamino)nicotinamido)propanoic acid]",4800 nM
13,"CC(C)CC(Nc1ccc(C(=O)NCCC(=O)O)cn1)c1ccc(-c2ccc(C(=O)N(C)C)cc2)cc1 (racemic) [Example 1.56, (+/−)-3-(6-(1-(4′-(dimethylcarbamoyl)biphenyl-4-yl)-3-methylbutylamino)nicotinamido)propanoic acid]",5000 nM
14,"CC(C)CC(Nc1ccc(C(=O)NCCC(=O)O)cn1)c1ccc(-c2ccc(C(C)C)cc2)cc1 (racemic) [Example 1.57, (+/−)-3-(6-(1-(4′-isopropylbiphenyl-4-yl)-3-methylbutylamino)nicotinamido)propanoic acid]",120 nM
15,"CC(C)CC(Nc1ccc(C(=O)NCCC(=O)O)cn1)c1ccc(-c2ccc(OC(F)(F)F)cc2)cc1 (racemic) [Example 1.58, (+/−)-3-(6-(3-methyl-1-(4′-(trifluoromethoxy)biphenyl-4-yl)butylamino)nicotinamido)propanoic acid]",120 nM
16,"CC(C)CC(Nc1ccc(C(=O)NCCC(=O)O)cn1)c1ccc(-c2ccc(S(C)(=O)=O)cc2)cc1 (racemic) [Example 1.59, (+/−)-3-(6-(3-methyl-1-(4′-(methylsulfonyl)biphenyl-4-yl)butylamino)nicotinamido)propanoic acid]",1500 nM

row,SMILES,Kb
1,"CC(C)CC(Nc1ccc(C(=O)NCCC(=O)O)cn1)c1ccc(-c2ccc(C(F)(F)F)nc2)cc1 (racemic) [Example 1.60, (+/−)-3-(6-(3-methyl-1-(4-(6-(trifluoromethyl)pyridin-3-yl)phenyl)butylamino)nicotinamido)propanoic acid]",280 nM
2,"Cc1cc(NC(CC(C)C)c2ccc(C(=O)NCCC(=O)O)cn2)cc(C)c1-c1ccc(C(F)(F)F)cc1 (racemic) [Example 2.1, (+/−)-3-(6-(1-(2,6-dimethyl-4′-(trifluoromethyl)biphenyl-4-ylamino)-3-methylbutyl)nicotinamido)propanoic acid]",38 nM
3,"CC(C)CC(Nc1ccc(-c2ccc(C(F)(F)F)cc2)cc1)c1ccc(C(=O)NCCC(=O)O)cn1 (racemic) [Example 2.4, (+/−)-3-(6-(3-methyl-1-(4′-(trifluoromethyl)biphenyl-4-ylamino)butyl)nicotinamido)propanoic acid]",300 nM
4,"CC(C)CC(Nc1ccc(-c2ccc(C(F)(F)F)cc2)nc1)c1ccc(C(=O)NCCC(=O)O)cn1 (racemic) [Example 2.7, (+/−)-3-(6-(3-methyl-1-(6-(4-(trifluoromethyl)phenyl)pyridin-3-ylamino)butyl)nicotinamido)propanoic acid]",280 nM
5,"Cc1cc(NC(CC(C)C)c2ccc(C(=O)NCCC(=O)O)cn2)cnc1-c1ccc(C(F)(F)F)cc1 (racemic) [Example 2.8, (+/−)-3-(6-(3-methyl-1-(5-methyl-6-(4-(trifluoromethyl)phenyl)pyridin-3-ylamino)butyl)nicotinamido)propanoic acid]",130 nM
6,"CCCC(Nc1cnc(-c2ccc(C(F)(F)F)cc2)c(C)c1)c1ccc(C(=O)NCCC(=O)O)cn1 (racemic) [Example 2.9, (+/−)-3-(6-(1-(5-methyl-6-(4-(trifluoromethyl)phenyl)pyridin-3-ylamino)butyl)nicotinamido)propanoic acid]",820 nM
7,"CC(Nc1ccc(-c2ccc(C(F)(F)F)cc2)cc1)c1ccc(C(=O)NCCC(=O)O)cn1 (racemic) [Example 2.10, (+/−)-3-(6-(1-(4′-(trifluoromethyl)biphenyl-4-ylamino)ethyl)nicotinamido)propanoic acid]",1700 nM
8,"CCC(Nc1cnc(-c2ccc(C(F)(F)F)cc2)c(C)c1)c1ccc(C(=O)NCCC(=O)O)cn1 (racemic) [Example 2.11, (+/−)-3-(6-(1-(5-methyl-6-(4-(trifluoromethyl)phenyl)pyridin-3-ylamino)propyl)nicotinamido)propanoic acid]",1800 nM
9,"CC(C)CC(Nc1ccc(-c2ccc(C(F)(F)F)cc2)cc1)c1ccc(C(=O)NCc2nnn[nH]2)cn1 (racemic) [Example 2.12, (+/−)-N-((1H-tetrazol-5-yl)methyl)-6-(3-methyl-1-(4′-(trifluoromethyl)biphenyl-4-ylamino)butyl)nicotinamide]",730 nM
10,"CC(C)CC(Nc1ccc(-c2ccc(C(F)(F)F)cc2)cc1)c1ccc(C(=O)Nc2nn[nH]n2)cn1 (racemic) [Example 2.13, (+/−)-6-(3-methyl-1-(4′-(trifluoromethyl)biphenyl-4-ylamino)butyl)-N-(2H-tetrazol-5-yl)nicotinamide]",1900 nM
11,"CCCC(Nc1ccc(-c2ccc(C(F)(F)F)cc2)nn1)c1ccc(C(=O)NCCC(=O)O)cc1 (racemic) [Example 2.14, (+/−)-3-(4-(1-(6-(4-(trifluoromethyl)phenyl)pyridazin-3-ylamino)butyl)benzamido)propanoic acid]",290 nM
12,"CCCC(Nc1cnc(-c2ccc(C(F)(F)F)cc2)nc1)c1ccc(C(=O)NCCC(=O)O)cc1 (racemic) [Example 2.15, (+/−)-3-(4-(1-(2-(4-(trifluoromethyl)phenyl)pyrimidin-5-ylamino)butyl)benzamido)propanoic acid]",120 nM
13,"CC(C)CC(Oc1ccc(-c2ccc(C(F)(F)F)cc2)cc1)c1ccc(C(=O)NCCC(=O)O)cn1 (racemic) [Example 3.1, (+/−)-3-(6-(3-methyl-1-(4′-(trifluoromethyl)biphenyl-4-Yloxy)butyl)nicotinamido)propanoic acid]",1500 nM
14,"CC(C)CC(Oc1ccc(C(=O)NCCC(=O)O)cn1)c1ccc(-c2ccc(C(F)(F)F)cc2)cc1 (racemic) [Example 3.2, (+/−)-3-(6-(3-methyl-1-(4′-(trifluoromethyl)biphenyl-4-yl)butoxy)nicotinamido)propanoic acid]",1900 nM
15,"CC(Oc1ccc(-c2ccc(C(F)(F)F)cc2)cc1)c1ccc(C(=O)NCCC(=O)O)cn1 (racemic) [Example 3.3, (+/−)-3-(6-(1-(4′-(trifluoromethyl)biphenyl-4-yloxy)ethyl)nicotinamido) propanoic acid]",6000 nM
